How the values were obtained:
[1] = target: T1, Integrin alpha-4/beta-7 (Homo sapiens, UniProt P13612+P26010); assay: Inhibition of [125I]-VCAM-Ig binding to human integrin alpha4-beta7 receptor in RPMI-8866 cells; format: cell-based
T1 sequence (P13612 whole entry): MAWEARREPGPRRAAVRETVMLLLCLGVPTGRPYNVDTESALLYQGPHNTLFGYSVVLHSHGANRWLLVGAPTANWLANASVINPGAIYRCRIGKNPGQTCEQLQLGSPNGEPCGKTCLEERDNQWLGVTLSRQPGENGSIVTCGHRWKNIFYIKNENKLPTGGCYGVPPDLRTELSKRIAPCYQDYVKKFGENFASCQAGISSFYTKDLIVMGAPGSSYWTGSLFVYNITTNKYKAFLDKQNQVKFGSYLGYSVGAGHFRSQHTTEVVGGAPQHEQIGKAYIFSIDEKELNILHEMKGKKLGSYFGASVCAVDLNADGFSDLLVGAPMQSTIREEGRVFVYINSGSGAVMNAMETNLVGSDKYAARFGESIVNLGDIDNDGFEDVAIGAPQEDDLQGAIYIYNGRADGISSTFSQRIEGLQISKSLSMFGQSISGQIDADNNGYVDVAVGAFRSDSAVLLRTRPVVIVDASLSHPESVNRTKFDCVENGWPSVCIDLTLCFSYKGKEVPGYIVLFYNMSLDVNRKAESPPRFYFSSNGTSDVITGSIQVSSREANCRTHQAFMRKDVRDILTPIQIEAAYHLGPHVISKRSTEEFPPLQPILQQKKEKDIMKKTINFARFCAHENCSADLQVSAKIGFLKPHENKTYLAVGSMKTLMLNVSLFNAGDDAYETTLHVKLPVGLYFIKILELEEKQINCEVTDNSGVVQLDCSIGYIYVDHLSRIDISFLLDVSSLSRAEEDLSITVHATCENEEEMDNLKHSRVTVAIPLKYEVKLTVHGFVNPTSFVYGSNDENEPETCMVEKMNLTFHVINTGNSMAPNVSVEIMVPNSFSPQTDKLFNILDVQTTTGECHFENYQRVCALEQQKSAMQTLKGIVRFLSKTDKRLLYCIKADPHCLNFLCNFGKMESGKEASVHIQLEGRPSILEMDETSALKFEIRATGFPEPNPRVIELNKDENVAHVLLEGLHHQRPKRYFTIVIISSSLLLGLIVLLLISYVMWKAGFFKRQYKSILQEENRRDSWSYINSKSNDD
T1 sequence (P26010 whole entry): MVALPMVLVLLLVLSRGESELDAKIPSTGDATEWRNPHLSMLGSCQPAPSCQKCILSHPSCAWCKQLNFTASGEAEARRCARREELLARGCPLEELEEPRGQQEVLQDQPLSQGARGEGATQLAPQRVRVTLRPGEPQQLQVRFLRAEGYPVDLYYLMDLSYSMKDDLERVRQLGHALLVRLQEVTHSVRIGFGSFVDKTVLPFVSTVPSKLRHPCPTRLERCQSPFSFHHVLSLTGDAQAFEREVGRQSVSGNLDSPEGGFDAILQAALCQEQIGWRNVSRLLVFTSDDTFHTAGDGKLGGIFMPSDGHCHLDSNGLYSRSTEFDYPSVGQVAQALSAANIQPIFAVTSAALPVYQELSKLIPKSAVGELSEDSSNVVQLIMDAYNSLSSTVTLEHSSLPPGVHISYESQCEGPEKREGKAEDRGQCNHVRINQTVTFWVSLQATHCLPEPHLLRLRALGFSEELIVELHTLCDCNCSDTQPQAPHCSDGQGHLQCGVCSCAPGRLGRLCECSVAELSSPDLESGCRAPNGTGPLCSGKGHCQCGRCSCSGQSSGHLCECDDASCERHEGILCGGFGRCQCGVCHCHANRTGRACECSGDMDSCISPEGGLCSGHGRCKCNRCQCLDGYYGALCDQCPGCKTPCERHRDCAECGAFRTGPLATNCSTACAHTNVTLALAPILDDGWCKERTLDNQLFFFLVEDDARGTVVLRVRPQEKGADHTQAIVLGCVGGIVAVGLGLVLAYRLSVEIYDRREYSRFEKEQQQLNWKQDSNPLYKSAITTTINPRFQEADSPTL

[2] = target: Integrin alpha-4/beta-1 (Homo sapiens, UniProt P05556+P13612); assay: Binding affinity towards VLA-4 (alpha4 beta-1) receptor in human Jurkat cells using [125I]VCAM-Ig as radioligand; format: cell-based
Chain of Integrin alpha-4/beta-1 (P05556 whole entry, one chain of several): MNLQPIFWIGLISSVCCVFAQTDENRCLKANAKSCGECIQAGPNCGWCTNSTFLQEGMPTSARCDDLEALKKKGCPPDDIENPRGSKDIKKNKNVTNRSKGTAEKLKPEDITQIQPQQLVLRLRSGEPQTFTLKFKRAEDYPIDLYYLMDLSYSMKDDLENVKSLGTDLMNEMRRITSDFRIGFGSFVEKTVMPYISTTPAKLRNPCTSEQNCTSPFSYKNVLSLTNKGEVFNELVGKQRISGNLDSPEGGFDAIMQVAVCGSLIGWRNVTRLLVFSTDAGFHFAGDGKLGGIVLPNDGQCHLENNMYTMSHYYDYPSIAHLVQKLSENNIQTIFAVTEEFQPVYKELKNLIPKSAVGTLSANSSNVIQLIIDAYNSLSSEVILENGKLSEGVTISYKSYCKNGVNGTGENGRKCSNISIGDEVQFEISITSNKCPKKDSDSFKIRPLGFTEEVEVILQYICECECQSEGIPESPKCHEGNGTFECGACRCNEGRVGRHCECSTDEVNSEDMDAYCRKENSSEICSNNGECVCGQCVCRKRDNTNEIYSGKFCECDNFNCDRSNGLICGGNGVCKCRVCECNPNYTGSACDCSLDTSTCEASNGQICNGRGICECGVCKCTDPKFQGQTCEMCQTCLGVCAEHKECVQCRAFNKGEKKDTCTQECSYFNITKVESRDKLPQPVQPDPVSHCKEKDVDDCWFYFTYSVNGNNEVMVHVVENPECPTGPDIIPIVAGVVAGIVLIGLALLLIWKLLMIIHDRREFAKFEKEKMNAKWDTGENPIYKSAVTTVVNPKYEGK

[3] = Oral bioavailability in rat (Sprague-Dawley) (dose 2 mg/kg); format: ADME, organism-based; settings: in vivo
[4] = Half life time was evaluated at 1 mg/kg of iv administration in Sprague-Dawley rats; format: ADME, organism-based; design: dose 1 mg/kg, route intravenous; settings: rat, in vivo
[5] = Plasma clearance was evaluated at 1 mg/kg of iv administration in Sprague-Dawley rats; format: ADME, organism-based; design: dose 1 mg/kg, route intravenous; settings: rat, read-out: Clp
[6] = target: T1, Integrin alpha-4/beta-7; assay: Binding affinity towards […] receptor in human RPMI-8866 B-cell line using [125I]MAdCAM-Ig as radioligand
[7] = target: T2, Integrin alpha-4/beta-7 (Homo sapiens) (UniProt P13612+P26010); assay: Percent inhibition of [125I]MAdCAM-Ig binding to human integrin alpha4-beta7 receptor of RPMI-8866 cells at 100 nM; format: cell-based
[8] = target: T2, Integrin alpha-4/beta-7 (Homo sapiens); assay: Percent inhibition of [125I]VCAM-Ig binding to human integrin alpha4-beta7 receptor of RPMI-8866 cells at 100 nM; format: cell-based

SMILES | IC50 [1] | IC50 [2] | also measured
COc1ccccc1-c1ccc(C[C@H](NC(=O)C2(S(=O)(=O)C(C)(C)C)CCCC2)C(=O)O)cc1 | 19 nM | 0.47 nM | –
COc1ccccc1-c1ccc(C[C@H](NC(=O)C2(S(=O)(=O)c3ccc(C)cc3)CCCCC2)C(=O)O)cc1 | 91 nM | 1.5 nM | –
COc1cccc(OC)c1-c1ccc(C[C@H](NC(=O)C2(S(=O)(=O)c3ccccc3)CCCNC2)C(=O)O)cc1 (stereo not given in full) | – | 0.09 nM | bioavailability [3]: 1%; half-life [4]: 30 min; clearance [5]: 46 mL/min/kg; IC50 [6]: 168 nM
O=C(O)[C@H](Cc1ccc(-c2ccccc2)cc1)NC(=O)C1(S(=O)(=O)c2ccccc2)CC=CC1 | – | 275 nM | inhibition [7]: 7%
COc1cccc(OC)c1-c1ccc(C[C@H](NC(=O)C2(S(=O)(=O)c3ccccc3)CCOCC2)C(=O)O)cc1 | – | 0.16 nM | bioavailability [3]: 3%; half-life [4]: 48 min; clearance [5]: 133 mL/min/kg; IC50 [6]: 38 nM
COc1ccccc1-c1ccc(C[C@H](NC(=O)C2(S(=O)(=O)c3cccc(C)c3)CCCCC2)C(=O)O)cc1 | 77 nM | 1 nM | –
O=C(Nc1ccc(C[C@H](NC(=O)C2(S(=O)(=O)c3ccccc3)CCOCC2)C(=O)O)cc1)c1c(Cl)cccc1Cl | – | 0.22 nM | bioavailability [3]: 1%; half-life [4]: 36 min; clearance [5]: 48 mL/min/kg; IC50 [6]: 20 nM
O=C(Nc1ccc(C[C@H](NC(=O)C2(S(=O)(=O)c3ccccc3)CCCNC2)C(=O)O)cc1)c1c(Cl)cccc1Cl (stereo not given in full) | – | 0.19 nM | bioavailability [3]: 0%; half-life [4]: 18 min; clearance [5]: 78 mL/min/kg; IC50 [6]: 22 nM
COc1ccccc1-c1ccc(C[C@H](NC(=O)C2(S(=O)(=O)c3ccccc3C)CCCCC2)C(=O)O)cc1 | 149 nM | 2.7 nM | –
COc1ccccc1-c1ccc(C[C@H](NC(=O)C2(S(=O)(=O)c3nccn3C)CCCC2)C(=O)O)cc1 | 4 nM | 0.21 nM | –
COc1ccccc1-c1ccc(C[C@H](NC(=O)C2(S(=O)(=O)c3ccc(F)cc3)CCCCC2)C(=O)O)cc1 | 25 nM | 0.75 nM | –
COc1ccccc1-c1ccc(C[C@H](NC(=O)C2(S(=O)(=O)c3ccccc3)CCCC2)C(=O)O)cc1 | 83 nM | 0.33 nM | –
O=C(O)[C@H](Cc1ccc(-c2ccccc2)cc1)NC(=O)C1(S(=O)(=O)c2ccc(Br)cc2)CCCCC1 | – | 44 nM | inhibition [8]: 19%
O=C(O)[C@H](Cc1ccc(-c2ccccc2)cc1)NC(=O)C1(S(=O)(=O)Cc2ccccc2)CCCCC1 | – | 65 nM | inhibition [8]: 14%
COc1ccccc1-c1ccc(C[C@H](NC(=O)C2(S(=O)(=O)c3ccc(Cl)cc3)CCCCC2)C(=O)O)cc1 | 53 nM | 1.1 nM | –
O=C(O)[C@H](Cc1ccc(-c2ccccc2)cc1)NC(=O)C1(S(=O)(=O)Cc2ccccc2)CCCC1 | – | 81 nM | inhibition [8]: -7%
O=C(O)[C@H](Cc1ccc(-c2ccccc2)cc1)NC(=O)C1(S(=O)(=O)C2CCCCC2)CCCCC1 | – | 14 nM | inhibition [8]: 24%
Cc1ccc(S(=O)(=O)C2(C(=O)N[C@@H](Cc3ccc(-c4ccccc4)cc3)C(=O)O)CCCC2)cc1 | – | 28 nM | inhibition [8]: 2%
COc1ccccc1-c1ccc(C[C@H](NC(=O)C2(S(=O)(=O)C3CCCCC3)CCCC2)C(=O)O)cc1 | 52 nM | 1.1 nM | –

— ChEMBL document CHEMBL1145739, “N-(3-phenylsulfonyl-3-piperidinoyl)-phenylalanine derivatives as potent, selective VLA-4 antagonists” (Bioorg Med Chem Lett, 2003)
